Reference: US20060194259A1, “Method for isolating an allosteric effector of a receptor” (priority 2002, published 2006)

What was measured:
[1] = test system: cells not expressing the EGFP-NK2R receptor; test: Calcium response on cells not expressing the receptor; format: cell-based; design: key: ns: not significant; ?: uniterpretable
receptor EGFP-NK2R [2] = biological target: T1, receptor EGFP-NK2R (Homo sapiens, UniProt P21452); test: Calcium response caused by NKA/NKA-Bo in HEK 293 cells expressing EGFP-NK2R (indo-1); format: cell-based; settings: for time necessary to return to 50% of the maximum calcium response: 5 nM NKA, 91 seconds in the absence of 805
T1 sequence (P21452 1-398): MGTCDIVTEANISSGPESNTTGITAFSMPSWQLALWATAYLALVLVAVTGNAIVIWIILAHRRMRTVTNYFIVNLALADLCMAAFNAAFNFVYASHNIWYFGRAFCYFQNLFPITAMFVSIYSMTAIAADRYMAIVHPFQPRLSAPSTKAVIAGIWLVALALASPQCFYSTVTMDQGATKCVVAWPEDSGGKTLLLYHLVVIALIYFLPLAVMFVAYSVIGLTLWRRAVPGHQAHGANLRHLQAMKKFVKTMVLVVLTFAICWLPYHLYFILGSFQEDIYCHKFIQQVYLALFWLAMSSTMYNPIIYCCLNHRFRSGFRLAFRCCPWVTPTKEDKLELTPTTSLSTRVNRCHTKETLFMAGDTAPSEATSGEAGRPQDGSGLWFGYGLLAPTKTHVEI
Protocol: The calcium responses caused by the agonist NKA-Bo on cells expressing the receptor EGFP-NK2R are recorded after charging the cells with the calcium-sensitive fluorescent probe: indo-1, according to the protocol described in Vollmer et al. (1999). The cells are put into suspension at a rate of 500,000 cells/ml in Hepes buffer and arranged in a spectrofluorimeter cuvette. The excitation wavelength is fixed at 338 nm and the emission is recorded at 400 and 470 nm. The responses traced are the ratios of the signals 400/470.

[3] = biological target: T2, wild-type human receptor NK2 (Homo sapiens, UniProt P21452); test: Calcium response caused by neurokinin A in HEK 293 cells expressing NK2 receptor; format: cell-based; settings: 805 20 μM; neurokinin A 10 or 100 nM
T2 construct: expressed in transfected cells; host or cells: HEK 293
T2 sequence (P21452 1-398): T1 sequence (P21452 1-398)
Protocol: (§1) The cells are put into suspension at a rate of 1,000,000 cells/ml in Hepes buffer (op. cit.) and arranged in a spectrofluorimeter cuvette. The excitation wavelength is fixed at 338 nm and the emission is recorded at 400 nm. The responses traced are the signals recorded at 400 nm.

receptor EGFP-NK2R [4] = biological target: T3, receptor EGFP-NK2R (UniProt P16610); test: Reversion of the binding of NKA-Bo to EGFP-NK2R by fluorescence energy transfer; design: % al (max): maximum value observed for the increase in amplitude of the rapid dissociation rate; ns = n; other: 20 nM of NK; % al (at 10 μM); other: compou; fused on or other part: EGFP fused to the receptor as FRET donor
T3 sequence (P16610 1-390): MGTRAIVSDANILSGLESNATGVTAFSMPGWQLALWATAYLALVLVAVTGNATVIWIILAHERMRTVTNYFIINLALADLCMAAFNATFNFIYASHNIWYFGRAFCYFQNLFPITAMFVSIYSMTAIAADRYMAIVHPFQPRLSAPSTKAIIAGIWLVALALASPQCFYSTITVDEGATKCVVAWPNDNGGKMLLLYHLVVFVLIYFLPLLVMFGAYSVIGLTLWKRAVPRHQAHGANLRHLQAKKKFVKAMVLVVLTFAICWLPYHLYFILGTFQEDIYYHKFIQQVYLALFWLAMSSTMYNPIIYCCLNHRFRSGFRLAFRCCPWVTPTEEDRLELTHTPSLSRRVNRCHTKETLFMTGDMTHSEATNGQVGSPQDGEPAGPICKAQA
Excerpt: (§2) The amplitude of each relaxation is then given by the adjustment of the experimental traces.

receptor EGFP-NK2R [5] = biological target: T1, receptor EGFP-NK2R; test: as above; settings: read-out: % bond reversion (50 μM)
Excerpt: as §2

[6] = biological target: T4, wild-type human receptor NK1 (Homo sapiens, UniProt P25103); test: Calcium response caused by substance P in HEK 293 cells expressing NK1 receptor; format: cell-based; settings: 805 20 μM; substance P 0.1 or 10 nM
T4 construct: expressed in transfected cells; host or cells: HEK 293
T4 sequence (P25103 whole entry): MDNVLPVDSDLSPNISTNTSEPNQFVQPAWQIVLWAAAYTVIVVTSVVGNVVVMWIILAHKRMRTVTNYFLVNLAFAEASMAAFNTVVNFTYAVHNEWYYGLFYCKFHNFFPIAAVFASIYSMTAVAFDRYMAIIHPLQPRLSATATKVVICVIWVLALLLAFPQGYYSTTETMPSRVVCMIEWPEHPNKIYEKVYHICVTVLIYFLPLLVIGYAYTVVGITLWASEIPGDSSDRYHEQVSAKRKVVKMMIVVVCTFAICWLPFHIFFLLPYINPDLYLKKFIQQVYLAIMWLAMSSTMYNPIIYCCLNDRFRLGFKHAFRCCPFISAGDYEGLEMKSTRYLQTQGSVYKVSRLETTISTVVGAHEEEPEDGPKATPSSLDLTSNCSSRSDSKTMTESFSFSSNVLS
Protocol: In FIGS. 12A and 12B, a suspension (1×10^6 cells/ml) of HEK 293 cells expressing the wild-type human NK1 receptor, and charged with indo-1 (3 μM) is stimulated by 0.1 nM (FIG. 12A) or 10 nM (FIG. 12B) of substance P(SP) in the presence (black circles) and in the absence (white circles) of 805 molecules (20 μM).
as §1

receptor EGFP-NK2R [7] = biological target: T3, receptor EGFP-NK2R; test: Dissociation kinetics of NKA-Bo bound to EGFP-NK2R by fluorescence energy transfer; format: binding; design: % al (max): maximum value observed for the increase in amplitude of the rapid dissociation rate; ns = n; other: 20 nM of NK; % al (at 10 μM); other: compou; fused on or other part: EGFP fused to the receptor as FRET donor; settings: for λ1/λ2 amplitudes (rapid/slow) of dissociation of NKA-Bo: 30/70 without 805
Protocol: Dissociation (FIG. 4B): HEK 293 cells expressing the receptor EGFP-NK2R are put into suspension at a concentration of 1,000,000 cells/ml in Hepes physiological buffer (in mM: 137.5 NaCl; 1.25 MgCl2; 1.25 CaCl2; 6 KCl; 5.6 glucose; 10 Hepes; 0.4 NaH2PO4; 1% BSA (w/v); pH 7.4) and arranged in a 1 ml cuvette equipped with a magnetic stirrer on the cuvette holder of a SPEX fluorolog 3 spectrofluorimeter.
as §2

receptor EGFP-NK2R [8] = biological target: T1, receptor EGFP-NK2R; test: Calcium response caused by NKA 4-10 TR7 in HEK 293 cells expressing EGFP-NK2R (indo-1); format: cell-based; settings: 805 20 μM; NKA 4-10 TR7 106, 50.3, 26.5 and 10.6 nM
Protocol: The cells are put into suspension at a rate of 500,000 cells/ml in Hepes buffer and arranged in a spectrofluorimeter cuvette. The excitation wavelength is fixed at 355 nm and the emission is recorded at […].

## N#CCN(Cc1ccccc1)Cc1ccc2ccccc2c1 [compound 805, [benzyl(2-naphthylmethyl)amino]acetonitrile]
[1]; Table 1
  Ca Rep.: ability to evoke a calcium response on cells not expressing the EGFP-NK2R receptor: ns
[1]; Table 2
  Ca Rep.: ns
Receptor EGFP-NK2R [2]; 805 10 μM
  time necessary to return to 50% of the maximum calcium response: 105 s
Receptor EGFP-NK2R [2]; 805 50 μM with 1, 5 and 1000 nM NKA
  effect on the calcium response caused by NKA: increases the duration of the calcium response
Receptor EGFP-NK2R [2]; 805 50 μM
  time necessary to return to 50% of the maximum calcium response: 115 s
[3]
  effect on the calcium response caused by neurokinin A: increases the amplitude of the response
Receptor EGFP-NK2R [4]; compound 10 μM
  % bond reversion (at 10 μM): 1 (10 μM) %
Receptor EGFP-NK2R [4]; read-out: IC50 (μM): concentration of compound for which a 50% reduction is observed in the binding of NKA-Bo, 20 nM of NKA-Bo, EGFP-NK2R receptor
  IC50: > 500 µM
Receptor EGFP-NK2R [5]
  inhibition at 50 µM: 9%
[6]
  effect on the calcium response caused by substance P: increases the amplitude of the response
Receptor EGFP-NK2R [7]; 1 μM 805
  λ1/λ2 amplitudes (rapid/slow) of dissociation of NKA-Bo: 35/65
Receptor EGFP-NK2R [7]; 50 μM 805
  λ1/λ2 amplitudes (rapid/slow) of dissociation of NKA-Bo: 80/20
Receptor EGFP-NK2R [7]; Table 1, ns = not significant
  % al (max): maximum value observed for the increase in amplitude of the rapid dissociation rate: 80%
Receptor EGFP-NK2R [7]; compound 10 μM, T = 22 ± 1 is amplitude of rapid dissociation in the absence of effector
  % al (at 10 μM): 29 (10 μM) %
Receptor EGFP-NK2R [7]; read-out: EC50 (μM): concentration of compound causing a 50% increase (relative to the maximum value) in the percentage of the amplitude of the rapid dissociation rate, Table 1, dissociation of NKA-Bo from EGFP-NK2R, ns = not significant
  EC50: 3 to 8 µM
Receptor EGFP-NK2R [8]
  effect on the calcium response caused by NKA 4-10 TR7: increases the amplitude of the response
